US20250302817A1, “METHODS FOR TREATING PTEN-MUTANT TUMORS” (Icahn School of Medicine at Mount Sinai, priority 2016, published 2025)
Read-outs that look alike come from different tables or passages of the source.

Experiments:
CYP2C9 = target: T1, CYP2C9 (Homo sapiens, UniProt P11712); conditions: in vivo; cited from earlier work
T1 construct: S-warfarin (a CYP2C9 substrate); host or cells: human subjects, in vivo

albumin = target: T2, albumin (Homo sapiens, UniProt P02768); conditions: cited from earlier work
T2 construct: host or cells: human subjects (circulating albumin)

[1] = multiple sclerosis patients, cited from earlier work; for Alopecia / Arthralgia / Diarrhea / Headache / Nausea / Neutropenia / Parathesia: all grades
CYP1A2 = conditions: repeated doses of teriflunomide; cited from earlier work
[2] = target: T3, organic anion transporter 3 (OAT3) (Homo sapiens, UniProt Q8TCC7); conditions: repeated doses of teriflunomide; cited from earlier work
T3 construct: host or cells: human subjects, in vivo

CYP3A4 = target: T4, CYP3A4 (Homo sapiens, UniProt P08684); conditions: in vivo; cited from earlier work
T4 construct: midazolam (a CYP3A4 substrate); host or cells: human subjects, in vivo

[3] = in vivo; cited from earlier work
gamma-H2AX = experiment: Gamma-H2AX measurement of DNA damage by flow cytometry; format: cell-based; conditions: 100 μM leflunomide 48 h or A771726
Protocol: FIG. 4A is a graph showing positively-stained cells labeled with a gamma-H2AX antibody; cells were analyzed by flow cytometry (Student's t-test, *p<0.05, n=3). […] The mean fluorescence intensity (MFI) was determined using flow cytometry (Student's t-test, *p<0.01, n=3). FIG. 4C is a series of representative photographs showing MEFs treated with 150 μM A771726 for 24 h and labeled with EdU and gamma-H2AX. Left: representative confocal microscopy images. Right: quantified EdU and gamma-H2AX colocalized foci (Student's t-test, *p<0.05, n=3). […] Left: representative confocal microscopy images. Right: quantification of the number of foci per cell (Student's t-test, p>0.05, n=6). FIG. 4E is a graph showing the percentage of cells treated with 150 μM A771726 for times indicated and labeled with antibodies to RPA and gamma-H2AX positively staining for RPA alone or both RPA and gamma-H2AX; cells were analyzed by flow cytometry (Student's t-test, *p<0.05, n=4). […] FIGS. 4G and 4H are graphs quantifying the number of chromosomal breaks and multiradial formations per haploid genome (Student's t-test, *p-values on figure, cells scored/replicate>100). […]
FIG. 10D is a bar graph showing a quantitative depiction of the percent cell area with EdU-staining from images in FIG. 4D, used to normalize foci to cell size (Student's t-test, p>0.05, not significant, n=6). […]

[4] = tested on: BCRP transporter and organic anion transporting polypeptide 1B1 and 1B3 (OATP1B1/1B3); conditions: repeated doses of teriflunomide; cited from earlier work
[5] = healthy subjects; cited from earlier work

T2 sequence (P02768 25-609): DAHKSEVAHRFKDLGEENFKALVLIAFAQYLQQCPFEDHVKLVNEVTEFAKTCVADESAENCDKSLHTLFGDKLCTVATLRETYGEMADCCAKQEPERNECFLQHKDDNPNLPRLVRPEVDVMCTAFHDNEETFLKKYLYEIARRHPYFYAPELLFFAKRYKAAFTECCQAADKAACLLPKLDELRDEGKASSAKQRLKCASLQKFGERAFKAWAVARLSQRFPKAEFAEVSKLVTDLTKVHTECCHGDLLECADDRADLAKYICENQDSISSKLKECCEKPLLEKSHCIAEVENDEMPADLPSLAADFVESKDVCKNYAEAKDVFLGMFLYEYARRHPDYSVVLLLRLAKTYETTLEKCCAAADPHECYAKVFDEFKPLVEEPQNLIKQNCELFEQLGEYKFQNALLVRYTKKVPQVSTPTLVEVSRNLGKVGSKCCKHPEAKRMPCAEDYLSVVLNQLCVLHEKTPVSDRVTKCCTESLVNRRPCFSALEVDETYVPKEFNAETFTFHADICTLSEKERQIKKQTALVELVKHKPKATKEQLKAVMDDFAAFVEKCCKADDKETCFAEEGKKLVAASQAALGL
T3 sequence (Q8TCC7 whole entry): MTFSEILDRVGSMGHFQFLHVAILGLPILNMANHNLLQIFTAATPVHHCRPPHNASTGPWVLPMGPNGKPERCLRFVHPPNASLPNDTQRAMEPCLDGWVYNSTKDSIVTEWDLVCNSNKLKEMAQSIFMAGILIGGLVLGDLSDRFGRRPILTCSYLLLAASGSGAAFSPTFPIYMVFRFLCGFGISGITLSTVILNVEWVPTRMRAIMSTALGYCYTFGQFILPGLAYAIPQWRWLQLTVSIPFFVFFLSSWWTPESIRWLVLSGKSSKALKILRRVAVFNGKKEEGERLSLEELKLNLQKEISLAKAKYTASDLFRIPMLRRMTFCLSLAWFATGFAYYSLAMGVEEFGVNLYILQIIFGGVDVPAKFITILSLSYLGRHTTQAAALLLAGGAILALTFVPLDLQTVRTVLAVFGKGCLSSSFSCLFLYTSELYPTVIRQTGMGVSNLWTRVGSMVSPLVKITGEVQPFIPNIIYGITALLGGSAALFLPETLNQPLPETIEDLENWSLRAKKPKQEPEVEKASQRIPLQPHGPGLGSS
T4 sequence (P08684 whole entry): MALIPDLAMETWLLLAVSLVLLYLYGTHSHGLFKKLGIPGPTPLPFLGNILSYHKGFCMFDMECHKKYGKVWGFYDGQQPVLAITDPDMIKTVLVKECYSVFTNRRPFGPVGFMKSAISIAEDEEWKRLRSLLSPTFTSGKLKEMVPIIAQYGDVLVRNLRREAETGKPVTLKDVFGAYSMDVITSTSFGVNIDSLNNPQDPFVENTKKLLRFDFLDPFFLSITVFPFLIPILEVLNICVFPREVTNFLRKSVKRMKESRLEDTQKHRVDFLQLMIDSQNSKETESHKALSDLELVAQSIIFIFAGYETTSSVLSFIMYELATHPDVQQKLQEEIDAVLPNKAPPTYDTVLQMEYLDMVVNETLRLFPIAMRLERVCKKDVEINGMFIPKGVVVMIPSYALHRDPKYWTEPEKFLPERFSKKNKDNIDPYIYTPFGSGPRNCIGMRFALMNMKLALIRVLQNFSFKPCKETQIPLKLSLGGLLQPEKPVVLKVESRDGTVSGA
T1 sequence (P11712 whole entry): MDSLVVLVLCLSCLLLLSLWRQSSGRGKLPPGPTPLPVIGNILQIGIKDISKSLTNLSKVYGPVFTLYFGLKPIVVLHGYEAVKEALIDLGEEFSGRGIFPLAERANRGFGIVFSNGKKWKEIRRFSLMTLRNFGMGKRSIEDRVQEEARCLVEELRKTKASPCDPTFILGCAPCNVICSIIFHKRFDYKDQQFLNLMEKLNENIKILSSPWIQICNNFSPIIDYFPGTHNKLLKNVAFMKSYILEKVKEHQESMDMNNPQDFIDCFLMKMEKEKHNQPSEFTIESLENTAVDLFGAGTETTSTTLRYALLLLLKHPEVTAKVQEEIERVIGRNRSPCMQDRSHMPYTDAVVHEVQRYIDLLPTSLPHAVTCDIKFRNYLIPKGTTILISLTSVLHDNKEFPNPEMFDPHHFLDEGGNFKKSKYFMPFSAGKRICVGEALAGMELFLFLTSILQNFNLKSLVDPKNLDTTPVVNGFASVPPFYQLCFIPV

Structure (SMILES): C/C(O)=C(\C#N)C(=O)Nc1ccc(C(F)(F)F)cc1 [teriflunomide, (Z)-2-Cyano-3-hydroxy-but-2-enoic acid-(4trifluoromethylphenyl)-amide]
- effect on pharmacokinetics of S-warfarin (a CYP2C9 substrate) (CYP2C9): does not affect the pharmacokinetics
- bound to albumin (albumin; healthy subjects): > 99.3%
- free fraction of teriflunomide (albumin; patients with chronic renal failure): approximately doubled
- free fraction of teriflunomide (albumin; patients with rheumatoid arthritis): slightly higher
- protein binding linearity (albumin; therapeutic concentrations): linear
- Alopecia ([1]; 7 mg/day (n = 1045)): 10%
- Arthralgia ([1]; 7 mg/day (n = 1045)): 8%
- Diarrhea ([1]; 7 mg/day (n = 1045)): 13%
- Headache ([1]; 7 mg/day (n = 1045)): 18%
- Nausea ([1]; 7 mg/day (n = 1045)): 8%
- Neutropenia ([1]; 7 mg/day (n = 1045)): 4%
- Parathesia ([1]; 7 mg/day (n = 1045)): 8%
- Elevated ALT, >3 × upper limit of normal ([1]; 7 mg/day (n = 1045)): 6%
- Elevated ALT, serious adverse events leading to treatment withdrawal ([1]; 7 mg/day (n = 1045)): 3%
- Hypertension (new onset) ([1]; 7 mg/day (n = 1045)): 3%
- Peripheral Neuropathy, serious adverse events leading to treatment withdrawal ([1]; 7 mg/day (n = 1045)): 0.3%
- Serious Infection ([1]; 7 mg/day (n = 1045)): 2%
- Alopecia ([1]; 14 mg/day (n = 1002)): 13%
- Arthralgia ([1]; 14 mg/day (n = 1002)): 6%
- Diarrhea ([1]; 14 mg/day (n = 1002)): 14%
- Headache ([1]; 14 mg/day (n = 1002)): 16%
- Nausea ([1]; 14 mg/day (n = 1002)): 11%
- Neutropenia ([1]; 14 mg/day (n = 1002)): 6%
- Parathesia ([1]; 14 mg/day (n = 1002)): 9%
- Elevated ALT, >3 × upper limit of normal ([1]; 14 mg/day (n = 1002)): 6%
- Elevated ALT, serious adverse events leading to treatment withdrawal ([1]; 14 mg/day (n = 1002)): 3%
- Hypertension (new onset) ([1]; 14 mg/day (n = 1002)): 4%
- Peripheral Neuropathy, serious adverse events leading to treatment withdrawal ([1]; 14 mg/day (n = 1002)): 0.5%
- Serious Infection ([1]; 14 mg/day (n = 1002)): 3%
- decrease in mean AUC of caffeine (CYP1A2): 55%
- decrease in mean Cmax of caffeine (CYP1A2): 18%
- increase in mean cefaclor AUC [2]: 1.54 fold
- increase in mean cefaclor Cmax [2]: 1.43 fold
- effect on pharmacokinetics of midazolam (a CYP3A4 substrate) (CYP3A4): does not affect the pharmacokinetics
- effect of rifampin on the pharmacokinetics of teriflunomide [3]: does not affect the pharmacokinetics
- DNA damage (gamma-H2AX) in PTEN-deficient versus WT cells (gamma-H2AX): augmented DNA damage to a significantly greater degree in PTEN-deficient cells
- increase in mean rosuvastatin AUC [4]: 2.51 fold
- increase in mean rosuvastatin Cmax [4]: 2.65 fold
- QT interval prolongation [5]: no evidence that teriflunomide caused QT interval prolongation of clinical significance
- upper bound of the 90% confidence interval for the largest placebo-adjusted, baseline-corrected QTc [5]: below 10 ms
